The results in this text go back to patent publication US10004732B2 (Novartis AG, priority 2014, dated 2018).

Where two headings read alike, the source gives them in different places.

The target in data set [1] is T1, PI 3-kinase alpha (Homo sapiens, UniProt P42336). The experiment in a line: Kinase Glo Luminescent Kinase Assay (Kglo), assay A. The class given is biochemical. The conditions noted are these: read-out: Assay A PI3Kα IC50.
Target sequence in this assay (P42336 whole entry): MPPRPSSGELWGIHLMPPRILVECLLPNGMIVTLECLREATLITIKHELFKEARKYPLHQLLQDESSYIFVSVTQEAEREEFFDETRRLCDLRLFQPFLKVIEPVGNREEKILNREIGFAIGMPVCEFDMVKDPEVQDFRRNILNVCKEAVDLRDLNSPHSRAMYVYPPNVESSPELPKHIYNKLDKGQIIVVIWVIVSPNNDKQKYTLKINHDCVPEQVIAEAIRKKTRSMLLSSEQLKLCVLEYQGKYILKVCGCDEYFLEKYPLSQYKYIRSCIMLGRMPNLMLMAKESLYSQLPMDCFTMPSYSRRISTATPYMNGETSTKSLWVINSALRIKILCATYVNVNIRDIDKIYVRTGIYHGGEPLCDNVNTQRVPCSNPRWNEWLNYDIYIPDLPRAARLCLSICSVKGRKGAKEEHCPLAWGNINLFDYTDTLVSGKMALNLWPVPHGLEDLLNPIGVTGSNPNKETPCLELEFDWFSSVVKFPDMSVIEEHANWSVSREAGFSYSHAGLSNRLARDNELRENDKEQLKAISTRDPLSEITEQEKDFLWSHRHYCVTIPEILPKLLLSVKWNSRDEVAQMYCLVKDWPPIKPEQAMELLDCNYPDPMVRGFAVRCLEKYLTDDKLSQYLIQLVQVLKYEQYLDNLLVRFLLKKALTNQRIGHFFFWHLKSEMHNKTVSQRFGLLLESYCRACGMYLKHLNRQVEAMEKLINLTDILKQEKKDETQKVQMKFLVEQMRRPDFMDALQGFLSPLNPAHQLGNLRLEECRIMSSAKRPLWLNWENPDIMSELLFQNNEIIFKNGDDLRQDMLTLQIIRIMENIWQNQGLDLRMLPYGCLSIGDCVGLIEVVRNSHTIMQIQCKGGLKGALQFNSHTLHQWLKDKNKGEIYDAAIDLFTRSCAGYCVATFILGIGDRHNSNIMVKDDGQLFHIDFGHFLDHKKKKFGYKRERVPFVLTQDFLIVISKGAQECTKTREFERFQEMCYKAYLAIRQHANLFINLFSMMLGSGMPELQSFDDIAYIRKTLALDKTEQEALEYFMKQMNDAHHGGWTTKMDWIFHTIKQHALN
For data set [2], the target named is T2, PI 3-kinase beta (Homo sapiens, UniProt P42338). The experiment in a line: Kinase Glo Luminescent Kinase Assay (Kglo), assay B. The conditions noted are these: read-out: Assay B PI3Kβ IC50. The class given is biochemical.
Target sequence in this assay (P42338 whole entry): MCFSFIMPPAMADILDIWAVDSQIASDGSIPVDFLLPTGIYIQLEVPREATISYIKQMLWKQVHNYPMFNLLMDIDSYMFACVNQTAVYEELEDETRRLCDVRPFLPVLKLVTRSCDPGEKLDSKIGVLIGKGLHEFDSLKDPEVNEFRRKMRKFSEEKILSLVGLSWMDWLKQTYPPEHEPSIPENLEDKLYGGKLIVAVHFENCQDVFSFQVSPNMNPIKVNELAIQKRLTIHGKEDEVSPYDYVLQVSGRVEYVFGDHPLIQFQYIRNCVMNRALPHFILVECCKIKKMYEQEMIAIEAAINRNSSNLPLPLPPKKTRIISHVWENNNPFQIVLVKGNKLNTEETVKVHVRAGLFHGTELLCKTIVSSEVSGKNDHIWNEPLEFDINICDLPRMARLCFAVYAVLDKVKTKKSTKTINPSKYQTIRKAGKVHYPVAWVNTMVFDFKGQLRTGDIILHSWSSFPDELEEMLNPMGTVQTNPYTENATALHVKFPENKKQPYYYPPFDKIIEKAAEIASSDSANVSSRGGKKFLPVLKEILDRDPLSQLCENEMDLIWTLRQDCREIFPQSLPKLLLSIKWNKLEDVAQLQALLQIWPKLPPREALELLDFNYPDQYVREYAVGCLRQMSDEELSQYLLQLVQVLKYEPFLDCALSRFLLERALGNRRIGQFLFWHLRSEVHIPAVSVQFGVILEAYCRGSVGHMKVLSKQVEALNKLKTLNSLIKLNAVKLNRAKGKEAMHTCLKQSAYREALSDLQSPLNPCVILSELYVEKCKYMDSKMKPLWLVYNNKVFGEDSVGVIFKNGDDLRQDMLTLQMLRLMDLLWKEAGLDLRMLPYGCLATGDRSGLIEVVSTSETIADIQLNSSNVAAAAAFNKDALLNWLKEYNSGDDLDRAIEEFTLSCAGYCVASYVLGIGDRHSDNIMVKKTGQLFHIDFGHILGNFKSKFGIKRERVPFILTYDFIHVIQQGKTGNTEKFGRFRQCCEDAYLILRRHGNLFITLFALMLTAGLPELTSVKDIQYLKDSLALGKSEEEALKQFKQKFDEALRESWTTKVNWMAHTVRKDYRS
Target sequence in this assay (P27986 461-568 partner): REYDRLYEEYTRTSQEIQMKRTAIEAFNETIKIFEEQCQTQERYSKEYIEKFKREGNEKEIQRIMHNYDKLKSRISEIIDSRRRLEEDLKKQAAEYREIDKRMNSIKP
Data set [3] concerns the target Vps34 (Homo sapiens, UniProt Q8NEB9). The experiment in a line: Kinase Glo Luminescent Kinase Assay (Kglo), assay C. The class given is biochemical. The conditions noted are these: read-out: Assay C VPS34 IC50.
Data set [4] has as its target PI 4-kinase beta (Homo sapiens, UniProt Q9UBF8). The experiment in a line: Kinase Glo Luminescent Kinase Assay (Kglo), assay D. Format: biochemical. The conditions noted are these: read-out: Assay D PI4Kβ IC50.
The target of data set [5] is PI 3-kinase gamma (Homo sapiens, UniProt P48736). The experiment in a line: TR-FRET Adapta assay, assay E. Format: biochemical. The conditions noted are these: read-out: Assay E PI3Kγ IC50.
The target of data set [6] is mTOR (Homo sapiens, UniProt P42345). The experiment in a line: Lanthascreen kinase binding assay, assay G. The conditions noted are these: read-out: Assay G mTOR IC50.
Protocol: Lanthascreen™ Kinase Binding Assay for mTOR (G)
Binding of an inhibitor to the kinase competes for binding with the tracer, resulting in a loss of FRET.
50 nL of compound dilutions were dispensed onto white 384-well small volume polystyrene plate.
For data set [7], the target named is T1, PI 3-kinase alpha. The experiment in a line: Cellular assay H1, p-Akt (S473) in Rat-1 cells, Surefire format. Format: cell-based. The conditions noted are these: non-asterisked data: version H1 (Surefire format), Rat-1 cells; read-out: Assay H PI3Kα IC50.
The target of data set [8] is T2, PI 3-kinase beta. The experiment in a line: Cellular assay I1, p-Akt (S473) in Rat-1 cells, Surefire format. Format: cell-based. As to conditions: non-asterisked data: version I1 (Surefire format), Rat-1 cells; read-out: Assay I PI3Kβ IC50.
Target sequence in this assay (P42338 whole entry): as the sequence (P42338 whole entry) above
Target sequence in this assay (Q63787 whole entry partner): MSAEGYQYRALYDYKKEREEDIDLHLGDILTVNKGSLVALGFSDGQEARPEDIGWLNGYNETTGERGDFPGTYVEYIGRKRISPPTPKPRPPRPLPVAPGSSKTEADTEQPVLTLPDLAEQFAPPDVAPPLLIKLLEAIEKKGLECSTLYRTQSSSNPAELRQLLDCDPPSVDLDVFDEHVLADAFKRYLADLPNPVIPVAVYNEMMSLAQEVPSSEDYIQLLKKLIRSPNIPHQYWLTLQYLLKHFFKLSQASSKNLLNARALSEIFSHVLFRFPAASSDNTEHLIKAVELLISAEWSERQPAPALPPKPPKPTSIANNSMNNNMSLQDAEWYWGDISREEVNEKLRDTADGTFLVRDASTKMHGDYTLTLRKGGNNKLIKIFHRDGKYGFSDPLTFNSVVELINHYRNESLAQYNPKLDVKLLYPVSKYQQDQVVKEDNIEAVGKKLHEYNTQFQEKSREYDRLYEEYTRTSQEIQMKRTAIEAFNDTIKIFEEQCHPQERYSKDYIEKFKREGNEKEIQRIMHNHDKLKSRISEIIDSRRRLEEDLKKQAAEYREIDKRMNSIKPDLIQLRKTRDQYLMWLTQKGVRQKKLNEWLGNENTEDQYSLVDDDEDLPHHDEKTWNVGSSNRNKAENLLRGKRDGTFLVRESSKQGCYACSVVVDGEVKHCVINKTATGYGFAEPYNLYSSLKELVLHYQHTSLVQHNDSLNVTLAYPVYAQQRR
The target of data set [9] is T3, PI 3-kinase delta (Homo sapiens, UniProt O00329). The experiment in a line: Cellular assay J1, p-Akt (S473) in Rat-1 cells, Surefire format. Format: cell-based. As to conditions: non-asterisked data: version J1 (Surefire format), Rat-1 cells; read-out: Assay J PI3Kδ IC50.
Target sequence in this assay (O00329 whole entry): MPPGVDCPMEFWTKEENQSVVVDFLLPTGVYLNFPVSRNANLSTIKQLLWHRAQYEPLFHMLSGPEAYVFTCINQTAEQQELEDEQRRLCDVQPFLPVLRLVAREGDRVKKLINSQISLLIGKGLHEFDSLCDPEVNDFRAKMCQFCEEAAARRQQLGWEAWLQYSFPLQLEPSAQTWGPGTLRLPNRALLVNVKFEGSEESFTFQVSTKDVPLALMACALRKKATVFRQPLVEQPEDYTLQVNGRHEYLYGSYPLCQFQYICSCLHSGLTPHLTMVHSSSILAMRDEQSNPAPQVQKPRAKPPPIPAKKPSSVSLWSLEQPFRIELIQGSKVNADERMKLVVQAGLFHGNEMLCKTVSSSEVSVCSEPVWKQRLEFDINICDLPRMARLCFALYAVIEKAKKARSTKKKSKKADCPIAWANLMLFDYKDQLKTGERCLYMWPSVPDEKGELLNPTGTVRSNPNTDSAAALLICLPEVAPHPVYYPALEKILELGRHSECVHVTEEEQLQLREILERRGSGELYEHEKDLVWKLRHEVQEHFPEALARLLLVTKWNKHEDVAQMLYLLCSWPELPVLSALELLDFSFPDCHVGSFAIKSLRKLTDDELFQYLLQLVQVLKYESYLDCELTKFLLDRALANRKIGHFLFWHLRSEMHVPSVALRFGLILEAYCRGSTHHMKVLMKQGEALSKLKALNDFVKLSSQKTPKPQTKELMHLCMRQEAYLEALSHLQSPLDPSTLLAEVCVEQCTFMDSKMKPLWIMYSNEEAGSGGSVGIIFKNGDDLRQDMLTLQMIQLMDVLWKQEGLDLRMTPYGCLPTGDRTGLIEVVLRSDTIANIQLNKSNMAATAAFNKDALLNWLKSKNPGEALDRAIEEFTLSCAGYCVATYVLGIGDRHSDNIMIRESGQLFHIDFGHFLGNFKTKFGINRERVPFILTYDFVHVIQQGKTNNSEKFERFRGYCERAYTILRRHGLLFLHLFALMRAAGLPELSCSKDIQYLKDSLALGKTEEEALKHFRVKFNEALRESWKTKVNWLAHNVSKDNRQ
Target sequence in this assay (Q63787 whole entry partner): as the sequence (Q63787 whole entry partner) above
Data set [10] deals with IL-8-induced neutrophil shape change in human whole blood. The experiment in a line: Whole blood neutrophil shape change assay (L). Format: cell-based. The conditions noted are these: IL-8, human whole blood, read-out: Assay L WBSC IC50.
Data set [11] addresses T3, PI 3-kinase delta. The experiment in a line: TR-FRET Adapta assay, assay F.
Target sequence in this assay (O00329 whole entry): as the sequence (O00329 whole entry) above
Target sequence in this assay (P27986 461-568 partner): as the sequence (P27986 461-568 partner) above
Data set [12] can be described thus: Microsomal clearance assay (M). As to conditions: intrinsic clearance in rat liver microsomes.
Protocol: The experiments were performed in 96-well glass plates at 37° C. on an automated Tecan EVO platform. Test compounds at a concentration of 10 mM in pure DMSO were diluted 1:1000 in water to 10 μM. […] Reactions were initiated by the addition of 150 μL of a cofactor solution containing 2 mM NADPH.

Sequence of Vps34 (Q8NEB9 whole entry, species assumed): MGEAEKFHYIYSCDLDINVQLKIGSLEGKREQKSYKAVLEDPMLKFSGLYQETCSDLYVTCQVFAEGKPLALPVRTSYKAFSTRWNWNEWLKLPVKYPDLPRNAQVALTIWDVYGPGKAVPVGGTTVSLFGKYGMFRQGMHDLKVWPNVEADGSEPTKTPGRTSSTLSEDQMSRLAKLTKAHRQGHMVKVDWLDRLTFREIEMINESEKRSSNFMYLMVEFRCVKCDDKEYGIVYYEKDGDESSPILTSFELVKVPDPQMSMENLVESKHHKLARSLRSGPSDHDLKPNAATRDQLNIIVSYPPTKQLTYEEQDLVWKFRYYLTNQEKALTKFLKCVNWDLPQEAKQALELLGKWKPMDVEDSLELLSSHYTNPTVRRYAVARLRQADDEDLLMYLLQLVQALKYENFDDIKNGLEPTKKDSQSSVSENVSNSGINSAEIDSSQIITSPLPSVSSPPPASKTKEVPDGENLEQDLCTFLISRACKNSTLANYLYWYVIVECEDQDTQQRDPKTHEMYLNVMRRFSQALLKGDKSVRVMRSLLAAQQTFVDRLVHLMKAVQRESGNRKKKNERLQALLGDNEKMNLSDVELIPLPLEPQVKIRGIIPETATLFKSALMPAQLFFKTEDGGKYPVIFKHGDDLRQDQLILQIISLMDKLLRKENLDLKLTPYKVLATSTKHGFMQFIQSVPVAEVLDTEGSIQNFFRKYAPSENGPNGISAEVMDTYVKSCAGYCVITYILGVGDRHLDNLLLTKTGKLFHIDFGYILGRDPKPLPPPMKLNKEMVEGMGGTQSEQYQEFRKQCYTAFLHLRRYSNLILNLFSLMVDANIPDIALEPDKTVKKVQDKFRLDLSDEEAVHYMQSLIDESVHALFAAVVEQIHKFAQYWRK

As for `Cc1ccc(S(=O)(=O)NC2CC3(CC(O)C3)C2)cc1-c1cnc(N)c(-n2cncn2)n1` (single isomer, unassigned) [Example 70a, (S)-3-(5-Amino-6-(1H-1,2,4-triazol-1-yl)pyrazin-2-yl)-N-(6-hydroxyspiro[3.3]heptan-2-yl)-4-methylbenzenesulfonamide or (R)-3-(5-Amino-6-(1H-1,2,4-triazol-1-yl)pyrazin-2-yl)-N-(6-hydroxyspiro[3.3]heptan-2-yl)-4-methylbenzenesulfonamide], the IC50 in data set [1] is 0.11 µM; in [2], 0.75 µM; in [3], above 10 µM; in data set [4], 4.6 µM; in data set [5] it was 0.025 µM; in data set [6] it was 2 µM. The IC50 in data set [7] is 1.92 µM; in data set [8], 2.64 µM; in data set [9], 1.41 µM; in data set [10], 0.185 µM; in data set [11] (Assay F PI3Kδ IC50 (μM)), 0.29 µM. In addition, the “Assay M RLM CI(int)” value in data set [12] is 58 µL/min/mg.

Regarding `Cc1ccc(S(=O)(=O)NC2CC3(CC(O)C3)C2)cc1-c1cnc(N)c(-n2cncn2)n1` (single isomer, unassigned) [Example 70b, (S)-3-(5-Amino-6-(1H-1,2,4-triazol-1-yl)pyrazin-2-yl)-N-(6-hydroxyspiro[3.3]heptan-2-yl)-4-methylbenzenesulfonamide or (R)-3-(5-Amino-6-(1H-1,2,4-triazol-1-yl)pyrazin-2-yl)-N-(6-hydroxyspiro[3.3]heptan-2-yl)-4-methylbenzenesulfonamide], the IC50 in data set [1] is 0.84 µM; in [2], 2.5 µM; in [3] it was above 10 µM; in data set [4], above 10 µM; in data set [5], 0.004 µM; in data set [6], 5.9 µM. For the same molecule, the concentration for half-maximal inhibition (IC50) in data set [7] was 4.06 µM; in data set [8], above 10 µM; in data set [9], 3.98 µM; in data set [10], 0.687 µM; in data set [11] (Assay F PI3Kδ IC50 (μM)) it was 1.1 µM. Besides, the “Assay M RLM CI(int)” value in data set [12] was 57 µL/min/mg.

For `CC(C)(O)CNS(=O)(=O)c1ccc(Cl)c(-c2cnc(N)c(-n3cncn3)n2)c1` [Example 37, 3-(5-Amino-6-(1H-1,2,4-triazol-1-yl)pyrazin-2-yl)-4-chloro-N-(2-hydroxy-2-methylpropyl)benzenesulfonamide], the IC50 is 1 µM in data set [1]; 3.5 µM in [2]; above 9.1 µM in [3]; 3.5 µM in [4]; 0.083 µM in data set [5]; 5.9 µM in data set [6]. The IC50 stood at 7.91 µM in data set [7]; 1.89 µM in data set [8]; 5.92 µM in [9]; 1.55 µM in data set [10] (Homo sapiens, Neutrophil); 0.73 µM in data set [11] (read-out: Assay F PI3Kδ IC50). For the same molecule, the “Assay M RLM CI(int)” value in data set [12] is 33 µL/min/mg.

Consider `CC(C)(O)CCNS(=O)(=O)c1ccc(Cl)c(-c2cnc(N)c(-n3cncn3)n2)c1` [Example 38, 3-(5-Amino-6-(1H-1,2,4-triazol-1-yl)pyrazin-2-yl)-4-chloro-N-(3-hydroxy-3-methylbutyl)benzenesulfonamide], for which the IC50 is 0.92 µM in [1]; 3.5 µM in data set [2]; above 9.1 µM in [3]; 4.2 µM in [4]; 0.025 µM in data set [5]; 8.4 µM in data set [6]. Also, the IC50 in [7] is 3.02 µM; in data set [8], 2.11 µM; in [9], 2.36 µM; in data set [10] (Homo sapiens, Neutrophil) it was 3.38 µM; in data set [11] (read-out: Assay F PI3Kδ IC50), 0.14 µM. For the same molecule, the “Assay M RLM CI(int)” value in data set [12] is 89 µL/min/mg.

For the molecule `Cc1ccc(S(=O)(=O)N[C@H]2C[C@H](O)C2)cc1-c1cnc(N)c(-n2cncn2)n1` [Example 71a, 3-(5-Amino-6-(1H-1,2,4-triazol-1-yl)pyrazin-2-yl)-N-((1r,3r)-3-hydroxycyclobutyl)-4-methylbenzenesulfonamide], the IC50 in [1] was 0.33 µM; in data set [2], 1.1 µM; in data set [3], above 10 µM; in data set [4], 2.8 µM; in data set [5], 0.013 µM; in data set [6], above 10 µM. Further, the IC50 was 3.06 µM in [7]; 8.02 µM in data set [8]; 3.65 µM in data set [9]; 0.763 µM in [10]; 1 µM in data set [11] (read-out: Assay F PI3Kδ IC50). Also, the “Assay M RLM CI(int)” value in data set [12] amounted to 18 µL/min/mg.

`Cc1ccc(S(=O)(=O)N[C@H]2C[C@@H](O)C2)cc1-c1cnc(N)c(-n2cncn2)n1` [Example 71b, 3-(5-amino-6-(1H-1,2,4-triazol-1-yl)pyrazin-2-yl)-N-((1s,3s)-3-hydroxycyclobutyl)-4-methylbenzenesulfonamide]: the IC50 in data set [1] is 0.76 µM; in data set [2], 1.9 µM; in data set [3] it was above 10 µM; in data set [4], 4.6 µM; in data set [5] it was 0.021 µM; in data set [6], above 10 µM. The IC50 in data set [7] is 6.91 µM; in data set [8], above 10 µM; in [9], 5.86 µM; in data set [10] it was 1.62 µM; in [11] (read-out: Assay F PI3Kδ IC50), 1.3 µM. Moreover, the “Assay M RLM CI(int)” value in data set [12] was found to be 26 µL/min/mg.

Consider `CCn1ncc(-c2nc(-c3cc(S(=O)(=O)NCC(C)(C)O)ccc3C)cnc2N)n1` [Example 82, 3-(5-Amino-6-(2-ethyl-2H-1,2,3-triazol-4-yl)pyrazin-2-yl)-N-(2-hydroxy-2-methylpropyl)-4-methylbenzenesulfonamide], for which the IC50 in data set [1] was 0.18 µM; in data set [2], 5.5 µM; in data set [3] it was above 10 µM; in data set [4], above 10 µM; in data set [5] it was 0.041 µM; in [6], above 10 µM. In addition, the IC50 in data set [7] amounted to 0.86 µM; in data set [8], 2.98 µM; in data set [9], 0.61 µM; in data set [10] (Homo sapiens, Neutrophil) it was 0.825 µM; in data set [11] (read-out: Assay F PI3Kδ IC50), 0.54 µM. Further, in [12], the “Assay M RLM CI(int)” value turned out to be 25 µL/min/mg.

As to `Cc1ccc(S(=O)(=O)NCC(C)(C)O)cc1-c1cnc(N)c(-c2cnn(CC(F)(F)F)n2)n1` [Example 84, 3-(5-Amino-6-(2-(2,2,2-trifluoroethyl)-2H-1,2,3-triazol-4-yl)pyrazin-2-yl)-N-(2-hydroxy-2-methylpropyl)-4-methyl benzenesulfonamide], the IC50 in [1] was 0.12 µM; in [2] it was 2.3 µM; in data set [3], above 10 µM; in [4], 7.05 µM; in data set [5], 0.042 µM; in data set [6] it was above 10 µM. Also, the IC50 in data set [7] is 0.45 µM; in [8] it was above 3 µM; in data set [9], 0.44 µM; in data set [10] (Homo sapiens, Neutrophil), 1.01 µM; in [11] (read-out: Assay F PI3Kδ IC50), 0.21 µM. The “Assay M RLM CI(int)” value in [12] worked out at 64 µL/min/mg.

For `CC(C)(O)CNS(=O)(=O)c1cccc(-c2cnc(N)c(-n3cncn3)n2)c1` [Example 123, 3-(5-Amino-6-(1H-1,2,4-triazol-1-yl)pyrazin-2-yl)-N-(2-hydroxy-2-methylpropyl)benzenesulfonamide], the concentration for half-maximal inhibition (IC50) in data set [1] was 2.9 µM; in [2] it was 5.5 µM; in data set [3] it was above 10 µM; in data set [4], 2.5 µM; in [5] it was 2.1 µM; in data set [6], 9 µM. Moreover, the IC50 is above 10 µM in [7]; above 10 µM in data set [8]; 3.63 µM in [9]; 85.1 µM in data set [10] (Homo sapiens, Neutrophil); 4.7 µM in data set [11] (read-out: Assay F PI3Kδ IC50). Besides, the “Assay M RLM CI(int)” value in [12] is 62 µL/min/mg.

For `Cc1ccc(S(=O)(=O)N2CCCC(F)(F)C2)cc1-c1cnc(N)c(-n2cncn2)n1` [Example 127.1], the IC50 in [1] was 0.29 µM; in [2], 1.2 µM; in data set [3], above 10 µM; in [4], 1.5 µM; in [5] it was 0.011 µM; in data set [6], 1.1 µM. Further, the IC50 was 1.57 µM in [7]; above 10 µM in data set [8]; 1.14 µM in [9]; 2.47 µM in data set [10] (Homo sapiens, Neutrophil); 0.56 µM in data set [11] (read-out: Assay F PI3Kδ IC50). In [12], the “Assay M RLM CI(int)” value is 907 µL/min/mg.

Take `Cc1ccc(S(=O)(=O)NCC2(C(N)=O)CC2)cc1-c1cnc(N)c(-n2cncn2)n1` [Example 127.56]: the IC50 is 0.42 µM in data set [1]; 1.2 µM in data set [2]; above 10 µM in [3]; above 10 µM in data set [4]; 0.073 µM in data set [5]; 7.4 µM in data set [6]. The 50% inhibitory concentration (IC50) in data set [7] amounted to 9.61 µM; in data set [8], 3.56 µM; in data set [9] it was 6 µM; in data set [10] (Homo sapiens, Neutrophil), 0.715 µM; in [11] (read-out: Assay F PI3Kδ IC50) it was 1.4 µM. Moreover, the “Assay M RLM CI(int)” value in data set [12] amounted to 25 µL/min/mg.
